This is an account of results in patent US5969094A, “Anti-paramyxovirus screening method and vaccine” (Emory University, priority 1996, dated 1999).

The subject of assay [1] is PI2 virus. Format: cell-based, parainfluenza virus type 2.
Assay [2] has as its system PI2 virus. Kind of assay: Surface immunofluorescence of PI2 antigen on infected HeLa-T4 cells (viral spread). The class given is cell-based, parainfluenza virus type 2. Conditions: low m.o.i. infection, incubated with peptide. The method, then: Surface immunofluorescence. Indirect immunofluorescence was performed as described by Paterson et al. 1989. In general, HeLa-T4 cells were grown on glass coverslips in 24-well plates and infected with wild-type PI2 virus as described above. At indicated times post infection, cells were washed with ice-cold PBS three times before being fixed with 1% paraformaldehyde in PBS. Rabbit anti-PI2 antibody was added onto cell monolayers, and cells were then incubated at 4° C. for 30 min. Cells were washed with ice-cold PBS three times, and then goat anti-rabbit immunoglobulin G fluorescein-conjugated antibody (Southern Biotechnology Associates, Inc., Birmingham, Ala.) was added and was then incubated at 4° C. for 30 min. Cell surface fluorescence was examined by fluorescence microscopy with a Nikon Optiphot microscope.
To further confirm that the F peptides inhibit viral spread, we examined the distribution of infected cells by surface immunofluorescence at intervals post low m.o.i. infection in the presence or absence of F peptides.

Assay [3] concerns PI2 virus. Briefly: Inhibition of plaque formation on Vero cells (viral entry), PI2. Format: cell-based, parainfluenza virus type 2. As for the experimental part:
Inhibition of plaque formation. A series of 2-fold dilutions of F peptides together with appropriately diluted PI2 or PI3 virus were added to monolayers of Vero cells. After 1 h incubation at 37° C., the inoculum was removed and overlaid with 2% white agar mixed at 1:1 ratio with 2XDMEM containing 2% FBS. Three days after overlying, red agar mixed at a 1:1 ratio with 2XDMEM containing 2% FBS was overlaid to stain the cells. Plaque numbers were counted one day after neutral red staining and recorded. The Reed-Muench method of estimating 50% endpoint [Welkos, S. et al., (1994) Methods in Enzymology. 235:29-39] was used to calculate the F peptide 50% effective concentration (EC50) value.
F peptides inhibit viral spread. To determine whether the F peptide interferes with the viral entry process, a plaque assay was performed by inoculating cells with virus and peptide together at 37° C. for 1 h, and then overlaying with agar without the addition of peptide. At 10^4 dilution of the PI2 virus stock, 80 μM of the 2F1B34 peptide (SEQ ID NO:21) caused an 80% reduction in number of plaques. Similarly, at 10^5 dilution of the PI3 virus stock, 100 μM of the 3F1B35 peptide (SEQ ID NO:23) caused a 70% reduction in number of plaques. Furthermore, the reduction in the number of viral plaques was correlated with increasing concentration of peptide incubated with the virus. […]

The target of a further assay is T1, PI2F + PI2HN (Human parainfluenza 2 virus, UniProt P25467).
T1 construct: expressed in transfected cells; host or cells: HeLa-T4 cells infected with vTF7.3
T1 sequence (P25467 107-551 limits assumed): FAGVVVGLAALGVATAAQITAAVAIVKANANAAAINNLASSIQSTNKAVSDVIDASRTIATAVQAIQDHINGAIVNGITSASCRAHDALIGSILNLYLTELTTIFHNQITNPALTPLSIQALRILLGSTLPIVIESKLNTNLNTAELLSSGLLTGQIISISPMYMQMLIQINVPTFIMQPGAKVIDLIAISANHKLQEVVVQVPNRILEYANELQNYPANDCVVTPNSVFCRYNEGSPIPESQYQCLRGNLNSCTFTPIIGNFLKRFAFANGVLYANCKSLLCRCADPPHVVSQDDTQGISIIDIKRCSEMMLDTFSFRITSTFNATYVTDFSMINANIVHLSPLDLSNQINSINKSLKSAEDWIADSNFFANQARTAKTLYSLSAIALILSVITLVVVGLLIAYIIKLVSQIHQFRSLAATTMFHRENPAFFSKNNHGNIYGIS
T1 sequence (P25467 24-106 partner limits assumed): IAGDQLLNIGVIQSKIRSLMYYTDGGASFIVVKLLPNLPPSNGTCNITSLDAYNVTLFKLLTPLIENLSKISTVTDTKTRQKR
Format: cell-based, parainfluenza virus type 2. The note with it: 18 hr.

In assay [4] the test system is PI2 virus. Kind of assay: Plaque size reduction on Vero cells, peptide in agar overlay. Format: cell-based, parainfluenza virus type 2. The note with it: 80 μM peptide in agar overlay after 1 h absorption; control cells 3 mm; three days. As for the experimental part: FIGS. 11A and 11B Plaque size reduction by F peptides. Plaque assay was performed on the Vero cells using PI2 virus. After 1 h absorption at 37° C., inoculum was removed and cells overlaid with a 1:1 mixture of 2% white agar with 2XDMEM containing 2% FBS (A) without addition of F peptide, or (B) with addition of 80 μM of 2F1B34 in the overlay agar. Three days after overlaying, the agar was removed and the monolayer of cells was stained with crystal violet.
As another indication of a reduction in spread of virus under condition of multiple cycle replication, the effect of the peptides on plaque size was determined.

Assay [5] has as its system PI2 virus. Briefly: Inhibition of virus production (released virus titer) in HeLa-T4 cells, PI2. The note with it: 48 h post infection; m.o.i. 0.1; 80 μM peptide (FIG. 10); culture supernatant. Format: cell-based, parainfluenza virus type 2.
The subject of another assay is HIV-1. The note with it: Wild et al. 1994; cited from earlier work.

Consider “2F1B34: PI2F peptide from the beginning of the transmembrane domain to include the entire heptad repeat B region (DLSNQINSINKSLKSAEDWIADSNFFANQARTAK)”, for which, in the assay with PI2 virus [1] (incubated with peptide, concentration not given), the “syncytium formation / inhibition of cell fusion in PI2 infected HeLa-T4 cells (in words)” value is on record as “no syncytia were seen”. Moreover, the “inhibition of PI2 virus-induced cell fusion” value in the assay on PI2 virus [1] (peptide concentration as low as 80 μM, 24 h post infection, m.o.i. 0.1) is reported as “completely inhibited”. Moreover, in the assay with PI2 virus [2], the “cells expressing PI2 antigen on the surface at 18 h” value is on record as “only few cells were expressing PI2 antigen”; the “numbers of cells showing PI2 antigen expression on the surface at 24 h and 48 hpi” value was “no increase in numbers of cells showing antigen expression”. In the assay with PI2 virus [3] (80 μM peptide with virus 1 h at 37° C., 10^4 dilution of the PI2 virus stock, overlay without peptide), the “reduction in number of plaques, PI2” value was determined as 80%. In the assay on PI2 virus [3] (Vero cells, Reed-Muench method, read-out: 50% effective concentration (EC50), plaque number, PI2), the EC50 was 53.8 µM. Also, in the assay with PI2F + PI2HN, the “inhibition of cell fusion induced by coexpression of PI2 F plus PI2 HN” value was “completely inhibit”. Besides, in the assay with PI2 virus [4], the “plaque size (diameter)” value worked out at 1.5 mm. For the same substance, the “decrease in the viral titer, PI2” value in the assay on PI2 virus [5] stood at 15 fold.
For the substance enfuvirtide, the “potency against cell-cell fusion versus infection by cell-free virus” value in the assay on HIV-1 was “more potent inhibitor of cell-cell fusion than of infection by cell-free virus”.
